Reference: patent US4510144A, “Methods of imparting immunomodulating activity with dihydrothiazolo purine derivatives” (Newport Pharmaceuticals International, priority 1982, dated 1985)

Key:
Influenza A/USSR 90 = assay: inhibition of influenza virus replication (hemadsorption assay); format: cell-based; conditions: read-out: % inhibition of viral growth
Procedure: The ability of NPT 16416 to inhibit influenza virus replication was measured using the hemadsorption assay.

[1] = system: antibody production to sheep red blood cells (SRBC); assay: antigen (SRBC) dependent antibody synthesis in vivo (IgM plaques); parameters: species or system Balb/C mice; conditions: for #Ig M plaques (x ± S.E.): saline control 21 ± 1.1; for % change from control, Ig M plaques: Table VIII; for % change from control, antibody response to SRBC: Table X, *P ≤ 0.001 where starred
Procedure: (3) Antigen (sheep red blood cell, SRBC) dependent antibody synthesis (in vivo)
There is set forth below the standard procedure which should be modified according to the solubility and other properties of the particular compound tested.
1. A solution containing 500 μg/ml NPT is prepared by adding a preweighed amount of the drup powder to sterile BPS (phosphate buffered saline) and sonicating the solution for 30 minutes.
1. NPT drug solution is made by dissolving 500 μg NPT per mil PBS.
1. A 1.4% suspension of agarose in PBS (7 g in 500 ml) is autoclaved for 15 min.
1. Mice are immunized as follows: sheep blood (sheep #23) is received weekly from Hyland labs. It is asceptically collected in two volumes of Alseviers to one volume of blood.
6. The cell count is determined and the stock solution is diluted to 4×10^7 cells/ml. This final suspension is used for immunization.
7. Each mouse is immunized by i.v. injection into the lateral tail vein (warmed in a 50° C. water bath for veinous dilation) with 0.1 ml SRBC (sheep red blood cell) suspensions; the final concentration of SRBC's is 4×10^6 per mouse.
1. Mice are treated by i.p. injection on days […], 1, 2, and 3. A syringe (1 cc) is fitted with a one-half inch, 26 gauge needle. The needle is introduced at a 45° angle along the right side of the linea alba. A 0.2 ml volume is given to both drug and control treated groups.
2. Drug groups are given 0.2 ml of a desired concentration NPT solution which, for a 20 g mouse, is […].
1. Spleens are removed asceptically and placed individually in Falcon #2025 tissue culture tubes containing 3 ml MEM. The tubes are then stored on ice.
2. Spleens are homogenized in the same tube with a teflon pestle attached to a G. K. Heller variable speed reversible motor connected with a G. K. Heller GT-21 motor controller setting #6.
6. The cell count is obtained and the stock suspension is diluted to 1×10^7 cells/ml. The Coulter counter threshhold is set at 10. Red cells are lysed with three drops of Zap isoton.
1. Thirty-five hundredths gram agarose and 0.53 grams MEM powder are placed into an Erlenmeyer flask. Fifty ml of distilled H2 O is then added to the flask.
1. Five ml sheep blood (same batch as used for immunization) is washed three times in PBS using an IEC Clinical Standard Centrifuge, speed #4 (2800 RPM) for 10 min.
1. Agar plates are removed from refrigerator and allowed to warm to room temperature. They are labeled in triplicate for each experimental group.
2. Agar-filled tubes are removed from the water bath. One-tenth of the 10% SRBC's and 0.1 ml spleen cell suspension are added to each agar tube. The tubes are agitated on a Vortex mixer.
3. The contents of the tubes are poured immediately into agar base plates and swirled until a smooth layer is formed. The plates are placed on a level surface until the agar solidifies.
4. The plates are incubated at 37° C. in a humidified atmosphere of 5% CO2 and 95% air for 90 min.
6. Plates are removed from incubator and 1 ml of the diluted complement is added to each plate.
7. Plates are then incubated another 30-45 minutes at 37° C. Plates are then removed from incubator and counted using oblique light.

[2] = system: splenocytes from athymic mice (theta positive cells); assay: induction of theta positive cells in splenocytes from athymic (nude) mice in vitro; format: cell-based; conditions: for percent of theta positive cells: mean of three experiments, saline control 8
Text: (4) Induction of theta positive cells in nude mice (in vitro).

Oc1ncnc2c1nc1n2CCS1 [NPT 16416, 3-hydroxy-7,8-dihydrothiazolo-[3,2e]-purine]
inhibition at 0.1 µg/mL (Influenza A/USSR 90; 0.1 μg/ml): 54% | inhibition at 0.5 µg/mL (Influenza A/USSR 90; 0.5 μg/ml): 59% | inhibition at 75 µg/mL (Influenza A/USSR 90; 75 μg/ml): 78% | inhibition at 0.05 µg/mL (Influenza A/USSR 90; NPT 16416 0.05 μg/ml): 48% | #Ig M plaques (x ± S.E.) ([1]; 0.05 mg/kg i.p.): 39 ± 3.34 | #Ig M plaques (x ± S.E.) ([1]; 0.5 mg/kg i.p.): 35 ± 2.06 | #Ig M plaques (x ± S.E.) ([1]; 5.0 mg/kg i.p.): 9 ± 0.37 | effect on antibody production in vivo, in words ([1]; SRBC immunized mice): enhancement of production of specific antibodies in vivo | % change from control, Ig M plaques ([1]; 0.05 mg/kg i.p.): +88% | % change from control, Ig M plaques ([1]; 0.5 mg/kg i.p.): +66% | % change from control, Ig M plaques ([1]; 5.0 mg/kg i.p.): -58% | % change from control, antibody response to SRBC ([1]; 0.5 mg/kg): +66% | % change from control, antibody response to SRBC ([1]; 5.0 mg/kg, NPT 16485 N.S.): -80% | enhancement of antibody production to SRBC ([1]; mice, 0.05 mg/kg): 88-226% | percent of theta positive cells ([2]; .005-.01 μg/ml): 14% | percent of theta positive cells ([2]; .05-.1 μg/ml): 18% | percent of theta positive cells ([2]; .5-1.0 μg/ml): 17% | production of theta positive (T) cells, in words ([2]; in vitro): able to cause the production of T-cells from a T-cell deficient population | increase of theta positive cells over control values ([2]; spleen cells from athymic mice, in vitro): 125%
